# Test results: US11760762B2, “Thienopyranones and furanopyranones as kinase, bromodomain, and checkpoint inhibitors” (SignalRx Pharmaceuticals, Inc., priority 2017, dated 2023)
# Like-named read-outs stand apart in the source and are kept apart here.
# What was measured:
# Hep3B = test: Hepatocellular carcinoma cell viability, AlamarBlue; type: cell-based; conditions: Homo sapiens, 24 hours, read-out: Hepatocarcinoma Cell Line IC50 Values Hep3B
# Procedure: (§1) Cells were seeded into 96-well plate at 1×10^4 cell per well in complete medium+10% FCS and incubated for 24 hours prior to the addition of compounds at concentrations ranging from 50 μM to 50 nM. Cell viability was quantitated 24 hours after the addition of compounds using AlamarBlue® viable cell detection reagent. IC50 curves were determined using Graphpad Prism software.
# Huh7 = test: as above; type: cell-based; conditions: Homo sapiens, Huh-7; 24 hours; read-out: Hepatocarcinoma Cell Line IC50 Values Huh7
# Procedure: as §1
# HepG2 = test: as above; type: cell-based; conditions: Homo sapiens, 24 hours, read-out: Hepatocarcinoma Cell Line IC50 Values HepG2
# Procedure: as §1
# PI3K-gamma = target: T1, PI3K-gamma (Homo sapiens, UniProt P48736); test: PI3K inhibition (Thermo Fisher Scientific); type: biochemical; conditions: 10-point curve, grouped by potency; read-out: IC50 P13K γ
# T1 construct: Thermo Fisher Scientific-Biosciences Life Sciences Solutions, Madison, WI (contract assay service)
# T1 sequence (P48736 whole entry): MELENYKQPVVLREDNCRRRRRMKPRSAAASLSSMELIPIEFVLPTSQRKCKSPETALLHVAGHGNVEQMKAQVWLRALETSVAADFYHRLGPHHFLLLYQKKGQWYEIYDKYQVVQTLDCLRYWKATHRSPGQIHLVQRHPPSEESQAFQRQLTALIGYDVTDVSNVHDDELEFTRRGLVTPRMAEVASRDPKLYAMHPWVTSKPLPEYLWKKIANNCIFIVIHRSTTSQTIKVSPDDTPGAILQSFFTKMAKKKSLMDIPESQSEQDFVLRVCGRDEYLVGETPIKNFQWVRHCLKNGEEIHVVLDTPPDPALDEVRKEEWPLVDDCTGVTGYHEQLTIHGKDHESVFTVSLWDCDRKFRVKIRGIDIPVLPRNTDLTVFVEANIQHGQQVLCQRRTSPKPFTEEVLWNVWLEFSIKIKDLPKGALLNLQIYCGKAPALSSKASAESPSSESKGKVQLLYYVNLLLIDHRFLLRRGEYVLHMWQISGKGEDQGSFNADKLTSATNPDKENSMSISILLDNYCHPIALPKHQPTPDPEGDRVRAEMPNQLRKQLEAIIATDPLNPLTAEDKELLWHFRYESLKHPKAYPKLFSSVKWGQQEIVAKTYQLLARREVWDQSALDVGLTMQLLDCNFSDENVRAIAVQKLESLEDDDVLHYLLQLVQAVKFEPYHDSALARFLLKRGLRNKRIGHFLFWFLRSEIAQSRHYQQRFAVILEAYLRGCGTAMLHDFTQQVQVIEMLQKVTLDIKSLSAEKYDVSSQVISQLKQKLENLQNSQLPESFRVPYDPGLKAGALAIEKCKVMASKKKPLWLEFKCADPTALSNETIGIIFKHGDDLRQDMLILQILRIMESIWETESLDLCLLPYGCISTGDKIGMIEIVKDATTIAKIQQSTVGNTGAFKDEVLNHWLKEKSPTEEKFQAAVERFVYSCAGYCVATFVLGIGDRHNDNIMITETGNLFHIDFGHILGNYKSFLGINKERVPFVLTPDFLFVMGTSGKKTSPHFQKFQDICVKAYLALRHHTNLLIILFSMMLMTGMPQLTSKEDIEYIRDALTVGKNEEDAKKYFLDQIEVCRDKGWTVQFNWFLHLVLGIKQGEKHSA
# Procedure: (§2) PI3K-alpha, PI3K-beta, PI3K-gamma, and PI3K-delta inhibition activity was determined by Thermo Fisher Scientific-Biosciences Life Sciences Solutions, Madison, WI The bromodomain protein inhibition (binding domain 1 and 2 of BRD4) was determined by Reaction Biology Corp., Malvern, PA The cyclin dependent kinase inhibition on proteins such as CDK2, CDK4, CDK6, and CDK9 was determined by Reaction Biology Corp., Malvern, PA.
# (§3) The compounds of the invention were characterized by their ability to inhibit the target proteins using third party vendors offering such services. PI3K-alpha, PI3K-gamma, and PI3K-delta inhibition activity was determined by Thermo Fisher Scientific-Biosciences Life Sciences Solutions, Madison, WI. […] NI=no inhibition detected up to 50 μM or IC50 not reached at 50 μM. ND=not done.
# PI3K-delta = target: T2, PI3K-delta (Homo sapiens, UniProt O00329); test: PI3K inhibition (Thermo Fisher Scientific); type: biochemical; conditions: 10-point curve, grouped by potency; read-out: IC50 P13K δ
# T2 construct: Thermo Fisher Scientific-Biosciences Life Sciences Solutions, Madison, WI (contract assay service)
# Procedure: as §2, §3
# [1] = tested on: Hepatocellular carcinoma, Neuroblastoma, and Mantle Cell lymphoma cell lines; test: Percent viability versus concentration, comparison with Palbociclib and combination; type: cell-based
# Procedure: The percent viability versus concentration experimental procedures for hepatocellular carcinoma cell lines, neuroblastoma cell lines, and Mantle cell lymphoma cell lines was performed as described in example 6, example 4, and example 5, respectively.
# Huh7 2H cell line = test: Huh7 2H cell viability; type: cell-based; conditions: Homo sapiens, Huh-7, 2 h
# Procedure: as §1
# The procedures of example 6 were followed except using the Huh7 2H cell line.
# Mino and Granta cells = test: Western blot PI3K and CDK4/cyclin D/Rb signaling in mantle cell lymphoma cells; type: cell-based; conditions: 24 hours
# Source text: Cells were lysed in RIPA buffer and equal protein was loaded on SDS-PAGE gel followed by western blotting using p-AKT-Ser473, AKT, pRB-S780/811, RB, pP70S6K. β-actin served as loading control.
# PIM1 = PIM1 (Homo sapiens, UniProt P11309); test: PIM1 inhibition; type: biochemical
# PIM1, sequence (P11309 whole entry, species assumed): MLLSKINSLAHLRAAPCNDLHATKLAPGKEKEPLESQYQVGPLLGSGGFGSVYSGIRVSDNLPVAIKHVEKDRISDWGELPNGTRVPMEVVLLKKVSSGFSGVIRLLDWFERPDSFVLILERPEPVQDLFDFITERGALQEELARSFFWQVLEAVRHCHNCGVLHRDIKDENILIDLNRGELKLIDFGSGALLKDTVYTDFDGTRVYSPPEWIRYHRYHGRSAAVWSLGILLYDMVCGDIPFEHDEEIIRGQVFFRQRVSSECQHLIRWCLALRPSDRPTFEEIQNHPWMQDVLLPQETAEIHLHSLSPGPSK
# [2] = Oral pharmacokinetic (PK) study (Quintara Discovery); type: in vivo; conditions: plasma, oral gavage 30 mg/kg
# Source text: The in vivo anticancer activity displaying drug like properties also bears this out as shown in FIG. 9 and the corresponding example.
# DNA-PK = DNA-PK (Homo sapiens, UniProt P78527); test: DNA-PK inhibition; type: biochemical
# CDK4 = target: T3, CDK4 (Homo sapiens, UniProt P11802); test: Cyclin dependent kinase inhibition (Reaction Biology Corp.); type: biochemical
# T3 construct: Reaction Biology Corp., Malvern, PA (contract assay service)
# T3 sequence (P11802 whole entry): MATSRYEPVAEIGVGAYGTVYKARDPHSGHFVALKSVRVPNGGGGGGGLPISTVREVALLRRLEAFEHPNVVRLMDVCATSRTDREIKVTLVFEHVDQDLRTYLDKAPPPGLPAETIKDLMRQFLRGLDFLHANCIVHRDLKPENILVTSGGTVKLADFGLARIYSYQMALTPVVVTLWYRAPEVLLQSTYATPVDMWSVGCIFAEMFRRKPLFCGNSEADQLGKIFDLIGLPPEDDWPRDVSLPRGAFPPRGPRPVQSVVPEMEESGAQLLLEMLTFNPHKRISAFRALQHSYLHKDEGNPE
# T3 sequence (P24385 whole entry partner): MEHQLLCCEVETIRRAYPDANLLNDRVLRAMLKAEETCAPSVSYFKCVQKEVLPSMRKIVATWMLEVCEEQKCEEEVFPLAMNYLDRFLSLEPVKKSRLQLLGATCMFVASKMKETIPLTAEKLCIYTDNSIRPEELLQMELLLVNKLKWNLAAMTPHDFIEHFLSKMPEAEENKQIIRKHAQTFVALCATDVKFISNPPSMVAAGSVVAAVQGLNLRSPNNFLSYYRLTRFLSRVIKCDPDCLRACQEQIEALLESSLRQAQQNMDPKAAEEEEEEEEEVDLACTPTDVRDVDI
# Procedure: as §2, §3
# CDK6 = target: T4, CDK6 (Homo sapiens, UniProt Q00534); test: as above; type: biochemical
# T4 construct: Reaction Biology Corp., Malvern, PA (contract assay service)
# T4 sequence (Q00534 whole entry): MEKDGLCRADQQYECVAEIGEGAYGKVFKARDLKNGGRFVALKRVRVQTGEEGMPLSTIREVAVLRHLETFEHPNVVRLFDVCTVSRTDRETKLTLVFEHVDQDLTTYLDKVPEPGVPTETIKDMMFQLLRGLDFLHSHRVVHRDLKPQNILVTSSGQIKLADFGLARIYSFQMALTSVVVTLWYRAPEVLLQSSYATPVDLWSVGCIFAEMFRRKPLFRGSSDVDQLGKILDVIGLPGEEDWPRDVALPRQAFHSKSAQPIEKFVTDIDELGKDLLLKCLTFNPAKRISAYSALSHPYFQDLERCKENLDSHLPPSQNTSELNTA
# T4 sequence (P24385 whole entry partner): as the sequence (P24385 whole entry partner) above
# Procedure: as §2, §3
# Huh7 cells [3] = test: Huh7 tumor implantation in NGS mice, safety and efficacy; conditions: 30 mg/kg oral gavage, 5 times per week for 2 weeks
# Source text: 1×10^7 Huh7 cells were implanted into NGS mice. When tumors reached ˜100 mm^3 after 14 days of tumor implantation, animals were divided into four groups (n=8 per group).
# Granta = test: Mantle cell lymphoma cell viability, AlamarBlue; type: cell-based
# Procedure: (§4) Mantle cell lymphoma cell lines Granta, Mino and Jeko-1 were seeded at a density of 2500 cells/0.1 mL per well in a 96-well plate. Compounds 1 or Palbociclib were added post-plating at 50 μM-50 nM concentrations for 48 hours followed by addition of AlamarBlue® and incubation of plates at 37° C. in 5% CO2 for 6 hours. Fluorescence signals were read as emission at 590 nm after excitation at 560 nm. IC50 for each cell line was determined using Graphpad Prism software module.
# Jeko-1 = test: Mantle cell lymphoma cell viability, AlamarBlue; type: cell-based
# Procedure: as §4
# Mino = test: Mantle cell lymphoma cell viability, AlamarBlue; type: cell-based
# Procedure: as §4
# CHLA-136 = test: Neuroblastoma cell viability, Alamar Blue; type: cell-based; conditions: Homo sapiens, 24 hours incubation
# Procedure: (§5) IC50 for each cell line was determined using Graphpad Prism software module.
# CHLA-255 = test: Neuroblastoma cell viability, Alamar Blue; type: cell-based; conditions: Homo sapiens, 24 hours incubation
# Procedure: as §5
# SMS-KNCR = test: Neuroblastoma cell viability, Alamar Blue; type: cell-based; conditions: Homo sapiens, 24 hours incubation
# Procedure: as §5
# Huh7 cells [4] = test: Western blot signaling in IGF-1 stimulated Huh7 cells (p-AKT, pRB); type: cell-based; conditions: Huh7, serum starved, IGF-1 stimulation 30 min
# Procedure: The hepatocellular carcinoma cell line, Huh7 was serum starved overnight in serum free medium. Cells were seeded into a 96 well tissue culture plate at 1×10^4 cells/well and pulsed with IGF-1 stimulation for 30 min at 37° C. at which time lysates were generated for SDS PAGE analysis. Western blot analysis was performed for p-AKT, AKT, pRB, RB and beta actin as loading control.
# CDK9 = target: T5, CDK9 (Homo sapiens, UniProt P50750); test: Cyclin dependent kinase inhibition (Reaction Biology Corp.); type: biochemical
# T5 construct: Reaction Biology Corp., Malvern, PA (contract assay service)
# T5 sequence (P50750 whole entry): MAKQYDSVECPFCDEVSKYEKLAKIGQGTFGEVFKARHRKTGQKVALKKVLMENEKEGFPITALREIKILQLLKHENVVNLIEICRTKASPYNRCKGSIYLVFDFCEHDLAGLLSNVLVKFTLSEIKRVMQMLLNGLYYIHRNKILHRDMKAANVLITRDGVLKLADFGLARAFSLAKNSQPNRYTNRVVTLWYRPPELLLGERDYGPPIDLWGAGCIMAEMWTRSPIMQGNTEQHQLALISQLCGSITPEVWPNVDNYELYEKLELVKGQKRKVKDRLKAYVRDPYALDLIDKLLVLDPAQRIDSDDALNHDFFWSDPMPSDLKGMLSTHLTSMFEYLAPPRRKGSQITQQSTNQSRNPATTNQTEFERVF
# T5 sequence (O60563 whole entry partner): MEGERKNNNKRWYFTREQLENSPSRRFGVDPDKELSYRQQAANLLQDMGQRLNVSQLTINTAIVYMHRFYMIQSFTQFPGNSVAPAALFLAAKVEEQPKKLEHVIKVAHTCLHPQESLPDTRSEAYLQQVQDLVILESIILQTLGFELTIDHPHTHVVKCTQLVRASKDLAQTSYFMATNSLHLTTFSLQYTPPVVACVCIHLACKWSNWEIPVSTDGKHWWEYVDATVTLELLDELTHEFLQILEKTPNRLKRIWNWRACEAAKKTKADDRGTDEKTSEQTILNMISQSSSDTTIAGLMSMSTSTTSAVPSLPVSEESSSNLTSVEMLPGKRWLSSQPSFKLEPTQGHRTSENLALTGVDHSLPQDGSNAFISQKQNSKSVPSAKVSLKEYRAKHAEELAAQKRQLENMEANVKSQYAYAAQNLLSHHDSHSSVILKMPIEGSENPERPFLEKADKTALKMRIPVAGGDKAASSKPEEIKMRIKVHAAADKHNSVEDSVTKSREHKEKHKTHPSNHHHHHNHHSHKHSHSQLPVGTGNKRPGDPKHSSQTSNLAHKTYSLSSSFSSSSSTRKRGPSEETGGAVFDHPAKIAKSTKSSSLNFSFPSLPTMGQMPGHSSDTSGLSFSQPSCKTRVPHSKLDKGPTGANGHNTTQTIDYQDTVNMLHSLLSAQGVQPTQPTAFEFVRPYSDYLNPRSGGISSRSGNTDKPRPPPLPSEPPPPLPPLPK
# Procedure: as §2
# CDK2 = target: T6, CDK2 (Homo sapiens, UniProt P24941); test: as above; type: biochemical
# T6 construct: Reaction Biology Corp., Malvern, PA (contract assay service)
# Procedure: as §2
# [5] = 10-point curve, grouped by potency
compound,measurement,setting,value
"CN(C)C(=O)c1cc2cnc(Nc3ccc(-c4csc5c(=O)cc(N6CCOCC6)oc45)cc3)nc2n1C1CCCC1 [Compound 1, {1-Cyclopentyl-6-[p-(5-morpholino-7-oxo-4-oxa-1-thia-3-indenyl)phenylamino]-1,5,7-triaza-1H-inden-2-yl} (dimethylamino) formaldehyde]",IC50,Hep3B,1100 nM
same,IC50,Huh7,550 nM
same,IC50,HepG2,4200 nM
same,IC50,PI3K-gamma,1000 to 5000 nM
same,IC50,PI3K-delta,< 100 nM
same,cell viability compared with Palbociclib,"[1]; Hepatocellular carcinoma, Neuroblastoma, Mantle Cell lymphoma cell lines (FIG. 8A-8C)",performed substantially better than Palbociclib
same,"cell viability compared with combination BKM120, JQ1, Palbociclib",[1]; hepatocellular carcinoma cells (FIG. 8D),performed substantially better
same,IC50,Huh7 2H cell line,495 nM
same,"PI3K-AKT signaling (p-AKT), Western blot",Mino and Granta cells,inhibits
same,"cyclin D/RB signaling (phosphorylation of RB), Western blot",Mino and Granta cells,inhibits
same,IC50,PIM1,35 nM
same,concentration at 24 h,[2]; 24 hours,63 nM
same,AUC(0-inf),[2]; Hot Rod Formulation Kit #8,3520 ng·h/mL
same,Cmax,[2]; Hot Rod Formulation Kit #8,1400 nM
same,Tmax,[2]; Hot Rod Formulation Kit #8,0.5 h
same,half-life,"[2]; Hot Rod Formulation Kit #8, read-out: T1/2 (half-life) (converted)",10.4 h
same,IC50,DNA-PK,21 nM
same,IC50,CDK4,< 2.54 nM
same,IC50,CDK4; [5],< 100 nM
same,IC50,CDK6,3.26 nM
same,IC50,CDK6; [5],< 100 nM
same,in vivo anticancer efficacy (Huh7 tumors),Huh7 cells [3],comparable to the efficacy of 3 separate cognate inhibitors
same,IC50,"Granta; 48 hours, read-out: Mantle Cell Line IC50 Values Granta",580 nM
same,"times more potent than Palbociclib, Granta",Granta; ratio of IC50 values,17.7 times
same,IC50,"Jeko-1; Homo sapiens, JeKo-1, 48 hours, read-out: Mantle Cell Line IC50 Values Jeko-1",851 nM
same,"times more potent than Palbociclib, Jeko-1",Jeko-1; ratio of IC50 values,8.7 times
same,IC50,"Mino; Homo sapiens, MINO, 48 hours, read-out: Mantle Cell Line IC50 Values Mino",583 nM
same,"times more potent than Palbociclib, Mino",Mino; ratio of IC50 values,82.1 times
same,IC50,CHLA-136,4500 nM
same,IC50,CHLA-255,385 nM
same,IC50,SMS-KNCR,962 nM
same,"phosphorylation of CDK target RB (pRB), Western blot",Huh7 cells [4],blocks phosphorylation
same,"phosphorylation of PI3K target AKT (p-AKT), Western blot",Huh7 cells [4],blocks phosphorylation
same,IC50,CDK9,2 nM
same,IC50,CDK2,500 nM
